Results taken from ChEMBL document CHEMBL1201862, “PubChem BioAssay data set” (2004).
Activity calls are given as the source filed them.

Key:
[1] = molecular target: T1, Nuclear receptor subfamily 0 group B member 1 (Homo sapiens, UniProt P51843); format: functional, cell-based;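 also: HEK293T cells transfected with SF-1 and DAX-1 plus StAR promoter luciferase reporter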
T1 sequence (P51843 whole entry): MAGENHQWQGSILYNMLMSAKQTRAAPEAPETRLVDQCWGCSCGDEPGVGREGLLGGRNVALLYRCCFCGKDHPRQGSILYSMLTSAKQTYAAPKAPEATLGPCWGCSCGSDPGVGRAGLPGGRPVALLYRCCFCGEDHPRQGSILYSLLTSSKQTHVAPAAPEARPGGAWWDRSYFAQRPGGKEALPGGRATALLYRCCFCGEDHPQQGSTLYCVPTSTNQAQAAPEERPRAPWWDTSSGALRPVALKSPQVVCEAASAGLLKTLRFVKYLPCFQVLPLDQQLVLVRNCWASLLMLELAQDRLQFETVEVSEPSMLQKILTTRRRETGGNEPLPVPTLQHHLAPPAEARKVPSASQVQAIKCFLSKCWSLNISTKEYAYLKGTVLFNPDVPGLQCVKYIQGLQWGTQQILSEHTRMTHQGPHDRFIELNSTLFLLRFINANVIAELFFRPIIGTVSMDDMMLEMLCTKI

[2] = inhibitors of Bluetongue virus cytopathic effect, confirmation, arbovirus, BSR cells (AID 1250); format: functional;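 also: protection from viral cytopathic effect measured as cell viability by ATP luminescence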
[3] = cells; format: functional, cell-based
[4] = Luminescence Cell-Based Dose Response to Identify Activators of 5'UTR Stem-Loop Driven Prion Protein mRNA Translation in H4-C Neuroglioblastoma Cells. [Related pubchem assays: 1829 (Project Summary), 1814 (Primary HTS)]; format: functional
[5] = Luminescence Cell-Based Dose Confirmation to Identify Activators of 5'UTR Stem-Loop Driven Alpha-Synuclein mRNA Translation in H4 Neuroglioblastoma Cells. [Related pubchem assays: 1829 (Project Summary), 1814 (Primary HTS)]; format: functional
[6] = Luminescence Cell-Based Dose Response HTS to Identify Activators of Luciferase Translation or Activity in H4 […] Cells. [Related pubchem assays: 1829 (Project Summary), 1814 (Primary HTS)]; format: functional
[7] = tested on: H4; assay: Luminescence Cell-Based Dose Response HTS to Identify Activators of 5'UTR Stem-Loop Driven Prion Protein mRNA Translation in H4 Neuroglioblastoma Cells. [Related pubchem assays: 1829 (Project Summary), 1814 (Primary HTS)]; format: functional; details: Homo sapiens
[8] = Luminescence Cell-Based Dose Response to Identify Activators of Luciferase Translation or Activity in H4-C Neuroglioblastoma Cells. [Related pubchem assays: 1829 (Project Summary), 1814 (Primary HTS)]; format: functional
[9] = molecular target: T2, Corticotropin-releasing factor receptor 2/Corticotropin-releasing factor-binding protein (Homo sapiens, UniProt P24387+Q13324); assay: activators of CRF receptor 2 with binding protein – uHTS hits, confirmation (AID 602473); format: functional; details: read-out: EC50_Mean
T2 sequence (Q13324 whole entry): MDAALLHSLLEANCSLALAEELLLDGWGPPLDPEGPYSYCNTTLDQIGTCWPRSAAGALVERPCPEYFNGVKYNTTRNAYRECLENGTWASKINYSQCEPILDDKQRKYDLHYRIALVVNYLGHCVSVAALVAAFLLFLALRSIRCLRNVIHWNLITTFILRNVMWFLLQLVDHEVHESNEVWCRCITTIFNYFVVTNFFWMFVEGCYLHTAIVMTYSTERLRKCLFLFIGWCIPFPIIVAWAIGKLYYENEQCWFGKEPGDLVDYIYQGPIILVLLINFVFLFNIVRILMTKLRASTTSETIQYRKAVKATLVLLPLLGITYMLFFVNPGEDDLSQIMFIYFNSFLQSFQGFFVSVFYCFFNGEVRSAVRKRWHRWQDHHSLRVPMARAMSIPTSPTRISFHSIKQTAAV
T2 sequence (P24387 whole entry): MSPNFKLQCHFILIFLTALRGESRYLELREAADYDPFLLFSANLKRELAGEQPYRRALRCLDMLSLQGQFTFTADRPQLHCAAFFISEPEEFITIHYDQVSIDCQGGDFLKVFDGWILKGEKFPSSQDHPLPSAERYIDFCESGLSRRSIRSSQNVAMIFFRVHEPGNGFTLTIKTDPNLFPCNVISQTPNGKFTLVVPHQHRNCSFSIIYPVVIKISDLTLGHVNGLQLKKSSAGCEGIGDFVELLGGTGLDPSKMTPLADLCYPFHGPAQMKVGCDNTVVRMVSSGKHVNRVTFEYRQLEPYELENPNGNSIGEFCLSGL

[10] = molecular target: Bifunctional protein GlmU (Mycobacterium tuberculosis, UniProt P9WMN3); assay: Inhibitors of Mycobacterial Glucosamine-1-phosphate acetyl transferase (GlmU). Secondary screen.; design: species or system Mycobacterium tuberculosis H37Rv
Bifunctional protein GlmU, sequence (P9WMN3 whole entry, the tested form may be a part): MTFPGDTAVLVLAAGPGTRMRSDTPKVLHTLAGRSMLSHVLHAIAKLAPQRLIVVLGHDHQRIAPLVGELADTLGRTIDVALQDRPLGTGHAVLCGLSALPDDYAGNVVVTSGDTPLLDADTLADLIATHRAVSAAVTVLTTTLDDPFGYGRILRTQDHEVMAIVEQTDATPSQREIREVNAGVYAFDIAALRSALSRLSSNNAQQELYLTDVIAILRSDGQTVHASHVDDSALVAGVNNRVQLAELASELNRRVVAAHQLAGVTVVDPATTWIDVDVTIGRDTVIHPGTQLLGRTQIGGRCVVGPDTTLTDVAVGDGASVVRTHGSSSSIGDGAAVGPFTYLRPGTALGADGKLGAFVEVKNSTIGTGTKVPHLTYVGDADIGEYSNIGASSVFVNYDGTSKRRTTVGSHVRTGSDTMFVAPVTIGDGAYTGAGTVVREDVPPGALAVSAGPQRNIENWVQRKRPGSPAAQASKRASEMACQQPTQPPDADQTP

[11] = molecular target: T3, RNA-binding protein pos-1 (Caenorhabditis elegans, UniProt G5EF15); assay: inhibitors of POS-1/mex-3 RNA binding, dose response, biochemical, fluorescence polarization (AID 1964);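 also: purified POS-1 fused to maltose binding protein made in E. coli; potency of compounds blocking POS-1 binding to fluorescent RNA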
T3 sequence (G5EF15 whole entry): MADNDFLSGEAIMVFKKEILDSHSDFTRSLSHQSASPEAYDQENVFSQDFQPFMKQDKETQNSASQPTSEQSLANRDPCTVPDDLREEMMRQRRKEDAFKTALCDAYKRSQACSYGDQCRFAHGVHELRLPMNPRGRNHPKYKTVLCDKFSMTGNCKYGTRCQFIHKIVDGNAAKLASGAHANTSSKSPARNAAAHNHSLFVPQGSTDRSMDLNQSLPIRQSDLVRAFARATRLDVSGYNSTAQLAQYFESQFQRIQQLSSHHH

[12] = molecular target: Genome polyprotein (dengue virus type 2, UniProt P29990); assay: Dengue-2 NS5 methyltransferase inhibitors, primary screen, biochemical, confirmation dose response (AID 588689); format: functional
Genome polyprotein, sequence (P29990 2492-3391 limits assumed): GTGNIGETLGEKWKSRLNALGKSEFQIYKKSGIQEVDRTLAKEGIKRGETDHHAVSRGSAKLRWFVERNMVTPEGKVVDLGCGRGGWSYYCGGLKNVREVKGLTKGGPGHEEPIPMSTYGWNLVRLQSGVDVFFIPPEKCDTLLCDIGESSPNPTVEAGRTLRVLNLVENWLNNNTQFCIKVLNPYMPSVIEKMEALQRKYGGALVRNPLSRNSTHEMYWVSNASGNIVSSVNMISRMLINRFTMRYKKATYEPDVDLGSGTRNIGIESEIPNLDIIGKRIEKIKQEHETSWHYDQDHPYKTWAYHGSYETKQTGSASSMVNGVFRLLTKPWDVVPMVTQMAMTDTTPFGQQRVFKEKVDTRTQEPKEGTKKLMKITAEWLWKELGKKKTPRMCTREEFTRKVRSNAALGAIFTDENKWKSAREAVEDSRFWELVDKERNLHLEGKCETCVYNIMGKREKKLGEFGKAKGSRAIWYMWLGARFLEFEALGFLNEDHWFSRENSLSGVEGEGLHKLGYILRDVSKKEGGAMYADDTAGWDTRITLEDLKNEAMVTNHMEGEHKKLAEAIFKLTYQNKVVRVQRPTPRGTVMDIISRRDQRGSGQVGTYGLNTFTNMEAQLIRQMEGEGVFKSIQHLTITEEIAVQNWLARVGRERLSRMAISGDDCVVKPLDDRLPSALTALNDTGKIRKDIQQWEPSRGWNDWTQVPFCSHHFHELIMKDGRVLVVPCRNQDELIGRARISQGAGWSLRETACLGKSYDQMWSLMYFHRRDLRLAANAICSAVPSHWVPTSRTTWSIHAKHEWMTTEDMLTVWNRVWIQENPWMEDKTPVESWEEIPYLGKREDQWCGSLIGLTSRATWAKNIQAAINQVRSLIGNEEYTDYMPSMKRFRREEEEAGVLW

[13] = molecular target: T4, Zinc finger protein mex-5 (Caenorhabditis elegans, UniProt Q9XUB2); assay: MEX-5/TCR-2 RNA interaction inhibitors, dose response, biochemical, C. elegans, fluorescence polarization (AID 1960)
T4 sequence (Q9XUB2 whole entry): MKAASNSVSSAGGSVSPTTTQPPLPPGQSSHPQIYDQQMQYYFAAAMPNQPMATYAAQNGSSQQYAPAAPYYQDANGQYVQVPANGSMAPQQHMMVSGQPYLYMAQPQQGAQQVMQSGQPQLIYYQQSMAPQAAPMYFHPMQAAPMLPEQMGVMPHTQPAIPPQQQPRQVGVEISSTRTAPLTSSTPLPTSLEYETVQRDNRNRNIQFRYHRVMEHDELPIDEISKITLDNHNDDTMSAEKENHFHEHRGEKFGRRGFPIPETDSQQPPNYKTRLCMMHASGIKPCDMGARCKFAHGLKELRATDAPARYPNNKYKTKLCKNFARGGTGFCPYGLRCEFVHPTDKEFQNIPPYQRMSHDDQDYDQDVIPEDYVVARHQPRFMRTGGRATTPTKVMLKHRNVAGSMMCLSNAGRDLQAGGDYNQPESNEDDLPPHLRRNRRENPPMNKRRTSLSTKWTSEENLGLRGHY

[14] = molecular target: Glyceraldehyde-3-phosphate dehydrogenase (Homo sapiens, UniProt P04406)
Glyceraldehyde-3-phosphate dehydrogenase, sequence (P04406 whole entry): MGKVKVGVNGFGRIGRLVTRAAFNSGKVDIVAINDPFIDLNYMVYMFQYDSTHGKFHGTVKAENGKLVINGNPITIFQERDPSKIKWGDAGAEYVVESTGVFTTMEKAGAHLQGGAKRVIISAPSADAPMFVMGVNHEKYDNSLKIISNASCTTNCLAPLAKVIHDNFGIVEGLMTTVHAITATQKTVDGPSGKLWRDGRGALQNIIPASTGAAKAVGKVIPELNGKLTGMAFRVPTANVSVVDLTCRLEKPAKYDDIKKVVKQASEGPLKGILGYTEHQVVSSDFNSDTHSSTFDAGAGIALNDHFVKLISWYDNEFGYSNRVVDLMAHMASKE

[15] = M. tuberculosis H37Rv growth inhibitors, H37Rv strain (AID 1626); format: functional
[16] = molecular target: T5, Bcl-2-related protein A1 (Mus musculus, UniProt Q07440); assay: Bfl-1 binding inhibitors, SAR follow-up, biochemical, fluorescence polarization (AID 1070)
T5 sequence (Q07440 whole entry): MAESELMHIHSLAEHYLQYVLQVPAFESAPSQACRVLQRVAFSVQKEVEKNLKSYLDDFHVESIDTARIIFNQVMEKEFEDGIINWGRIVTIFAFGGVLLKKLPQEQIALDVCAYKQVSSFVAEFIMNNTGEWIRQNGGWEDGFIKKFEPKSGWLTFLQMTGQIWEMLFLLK

[17] = molecular target: T5, Bcl-2-related protein A1; assay: Bfl-1 inhibitors blocking BH3 peptide binding, confirmation, biochemical, TR-FRET, mouse Bfl-1 (AID 621);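 also: TR-FRET binding of GST-Bfl-1 to FITC-labelled Bid peptide via terbium antibody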
[18] = cytotoxicity in HPDE-C7 cells, cell-based, fluorescence, HTS (AID 430); format: functional; details: Homo sapiens
[19] = microbe, parasite or virus in culture; format: functional; details: Mycobacterium tuberculosis
[20] = cytotoxicity in KRAS-transformed pancreatic duct cells, primary screen, cell-based, fluorescence, HTS (AID 431); format: functional; details: Homo sapiens;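 also: cell line used: HPDE-C7K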

In the case of `COc1ccc(/C=C/C(=O)Nc2ccccc2C(=O)O)cc1`, the IC50 [1] is reported as > 67.5 µM (inactive), the IC50 [2] is reported as 31 µM (active) and the IC50 [3] is reported as > 67.5 µM (inactive).

In the case of `COc1ccc(Cl)c2c3n[nH]c(SCc4ccccn4)nc-3nc12`, the EC50 [4] is reported as 0.391 µM (active), the EC50 [5] is reported as 0.249 µM (active) and the EC50 [6] is reported as < 0.1 µM (active). The EC50 [7] was 25.2 µM (active) and the EC50 [8] was 0.287 µM (active).

In the case of `Cc1nnc(SCC(=O)c2cc(C)n(C3CC3)c2C)s1`, the EC50 [9] is reported as 7.62 µM (active), the EC50 [4] is reported as 0.594 µM (active) and the EC50 [5] is reported as 1.88 µM (active). The EC50 [6] was < 0.1 µM (active), the EC50 [7] was > 120 µM (not active) and the EC50 [8] was 0.266 µM (active).

With `COc1ccc(N2C(=O)C(Cl)=C(Nc3ccccc3O)C2=O)cc1` the IC50 [10] was 53.6 µM (active), the EC50 [11] was > 300 µM (not active) and the IC50 [12] was 78 µM (active). For the same molecule, the EC50 [13] was 24.5 µM (active).

In the case of `Cc1cccc(N2C(=O)C(Cl)=C(N3CCN[C@@H](C)C3)C2=O)c1`, the IC50 [14] is reported as > 50 µM (inconclusive).

With `COc1ccc(-c2cc(C(F)(F)F)n3ncc(C(=O)N4CCCCC4c4cccnc4)c3n2)cc1` (stereo not given) the IC50 [15] was > 100 µM (active).

In the case of `COc1ncccc1-c1nnn(-c2ccc(C)cc2)n1`, the IC50 [16] is reported as > 100 µM (not active) and the IC50 [17] is reported as > 100 µM (not active).

In the case of `Cc1nc2cc(C(F)(F)F)ccc2n1C1CCN(Cc2nnnn2Cc2ccc3c(c2)OCO3)CC1`, the EC50 [18] is reported as 8.54 µM (active), the CC50 [19] is reported as > 40 µM (active) and the EC50 [20] is reported as 8.93 µM (active).
